Measured values: patent US20230150924A1, “NOVEL COMPOUND HAVING CANCER METASTASIS INHIBITORY ACTIVITY, PREPARATION METHOD THEREFOR, AND PHARMACEUTICAL COMPOSITION FOR INHIBITING CANCER METASTASIS AND INVASION OR TREATING COLORECTAL CANCER, COMPRISING COMPOUND” (CELLGENTEK CO., LTD., priority 2019, published 2023)

Legend:
[1] = test system: invasion of colorectal cancer cells; assay: In vivo relative invation (invasion; EV and KITENIN controls, no method described); conditions: relative to EV (=1); KIT = KITENIN
KAI1 promoter = KAI1 promoter luciferase reporter assay in transfected Caco2 cells; assay type: cell-based, human; conditions: Homo sapiens, Caco-2, 16 h, 1 μM compound, 16 hours, transfected Caco2 cells, luciferase activity relative to DMSO control (=1); read-out: Relative KAI promoter activity

Compound | In vivo relative invation [1] | fold induction at 1 µM (KAI1 promoter)
CCC(=O)NCC(=O)c1ccc(N(C)C)cc1 [Example 99, N-(2-(4-(dimethylamino)phenyl)-2-oxoethyl)propionamide] | 1.134 | 1.71
O=C(CNS(=O)(=O)Cc1ccccc1)c1ccc(Cl)cc1 [Example 70, N-(2-(4-chlorophenyl)-2-oxoethyl)-1-phenylmethanesulfonamide] | 1.274 | 0.81
CC(C)(C)OC(=O)N1CCN(Cc2cccc(C(=O)NCC(=O)c3ccccc3)c2)CC1 [Example 245, tert-butyl 4-(3-((2-oxo-2-phenylethyl)carbamoyl)benzyl) piperazine-1-carboxylate] | 1.126 | 1.35
CCOC(=O)N1CCN(Cc2ccc(C(=O)NCC(=O)c3ccccc3)cc2)CC1 [Example 277, ethyl 4-(4-((2-oxo-2-phenylethyl)carbamoyl)benzyl)piperazine-1-carboxylate] | 1.126 | 1.3
Cc1cccc(C(=O)NCC(=O)c2ccccc2)c1 [Example 13, 3-methyl-N-(2-oxo-2-phenylethyl)benzamide] | 0.8565 | 1.73
CN(C)c1ccc(C(=O)CNC(=O)c2ccc(F)cc2Cl)cc1 [Example 115, 2-chloro-N-(2-(4-(dimethylamino)phenyl)-2-oxoethyl)-4-fluorobenzamide] | 1.209 | 2.04
O=C(CNC(=O)c1cccc([N+](=O)[O-])c1)c1ccccc1 [Example 34, 3-nitro-N-(2-oxo-2-phenylethyl)benzamide] | 1.103 | 1.34
COc1cc(OC)cc(C(=O)NCC(=O)c2ccc(N(C)C)cc2)c1 [Example 121, N-(2-(4-(dimethylamino)phenyl)-2-oxoethyl)-3,5imethoxybenzamide] | 1.203 | 0.96
O=C(CNS(=O)(=O)c1cccc([N+](=O)[O-])c1)c1ccc(Cl)cc1 [Example 63, N-(2-(4-chlorophenyl)-2-oxoethyl)-3-nitrobenzenesulfonamide] | 1.102 | 0.7
O=C(CNC(=O)c1ccc(Cl)cc1)c1ccc(Cl)cc1 [Example 87, 4-chloro-N-(2-(4-chlorophenyl)-2-oxoethyl)benzamide] | 1.218 | 0.91
COc1cccc(C(=O)CNC(=O)c2cccc(CN3CCOCC3)c2)c1 [Example 293, N-(2-(3-methoxyphenyl)-2-oxoethyl)-3-(morpholinomethyl)benzamide] | 1.174 | 1.25
O=C(CNC(=O)c1ccc(-c2ccccc2)cc1)c1ccccc1 [Example 43, N-(2-oxo-2-phenylethyl)-[1,1′-biphenyl]-4-carboxamide] | 0.9774 | 1.91
O=C(CNC(=O)c1ccccc1CN1CCCc2ccccc21)c1ccccc1 [Example 297, 2-((3,4-dihydroquinolin-1(2H)-yl)methyl)-N-(2-oxo-2-phenylethyl)benzamide] | 1.231 | 1.33
COc1ccccc1N1CCN(Cc2cccc(C(=O)NCC(=O)c3ccccc3)c2)CC1 [Example 236, 3-((4-(2-methoxyphenyl)piperazin-1-yl)methyl)-N-(2-oxo-2-phenylethyl)benzamide] | 1.112 | 1.3
CN(C)C(=O)N1CCC(Oc2ccccc2C(=O)NCC(=O)c2ccccc2)CC1 [Example 180, N,N-dimethyl-4-(2-((2-oxo-2-phenylethyl)carbamoyl)phenoxy) piperidine-1-carboxamide] | 1.253 | 1.09
Cc1ccc(S(=O)(=O)N2CCC(Oc3ccccc3C(=O)NCC(=O)c3ccccc3)CC2)cc1 [Example 185, N-(2-oxo-2-phenylethyl)-2-((1-tosylpiperidin-4-yl)oxy)benzamide] | 1.114 | 1.12
CCCCN(C)Cc1cccc(C(=O)NCC(=O)c2ccccc2)c1 [Example 246, 3-((butyl (methyl)amino)methyl)-N-(2-oxo-2-phenylethyl)benzamide] | 1.148 | 1.88
O=C(CNC(=O)c1ccc(F)c(F)c1)c1ccccc1 [Example 35, 3,4-difluoro-N-(2-oxo-2-phenylethyl)benzamide] | 0.8811 | 1.28
O=C(CNC(=O)c1ccccc1OC1CCN(C(=O)c2cccc([N+](=O)[O-])c2)CC1)c1ccccc1 [Example 195, 2-((1-(3-nitrobenzoyl)piperidin-4-yl)oxy)-N-(2-oxo-2-phenylethyl)benzamide] | 1.139 | 1.08
O=C(CNC(=O)c1ccc(CN2CCN(c3ccccc3F)CC2)cc1)c1ccccc1 [Example 257, 4-((4-(2-fluorophenyl)piperazin-1-yl)methyl)-N-(2-oxo-2-phenylethyl)benzamide] | 1.338 | 1.36
COc1ccccc1C(=O)N1CCC(Oc2ccccc2C(=O)NCC(=O)c2ccccc2)CC1 [Example 162, 2-((1-(2-methoxybenzoyl)piperidin-4-yl)oxy)-N-(2-oxo-2-phenylethyl)benzamide] | 1.043 | 0.99
Cc1cccc(C(=O)NCC(=O)c2ccc(N(C)C)cc2)c1 [Example 98, N-(2-(4-(dimethylamino)phenyl)-2-oxoethyl)-3-methylbenzamide] | 1.121 | 2.64
COc1cccc(C(=O)CNC(=O)c2cccc(CN3CCC(N4CCCCC4)CC3)c2)c1 [Example 283, 3-([1,4′-bipiperidin]-1′-ylmethyl)-N-(2-(3-methoxyphenyl)-2-oxoethyl)benzamide] | 1.235 | 1.33
O=C(CNC(=O)c1ccccc1OC1CCN(C(=O)c2cccs2)CC1)c1ccccc1 [Example 168, N-(2-oxo-2-phenylethyl)-2-((1-(thiophene-2-carbonyl)piperidin-4-yl)oxy)benzamide] | 1.199 | 1.05
O=C(CNC(=O)c1cccc(C(F)(F)F)c1)c1ccc(Cl)cc1 [Example 74, N-(2-(4-chlorophenyl)-2-oxoethyl)-3-(trifluoromethyl)benzamide] | 1.17 | 0.78
O=C(CNC(=O)c1ccccc1CN1CCN(c2ccccn2)CC1)c1ccccc1 [Example 302, N-(2-oxo-2-phenylethyl)-2-((4-(pyridin-2-yl)piperazin-1-yl)methyl)benzamide] | 1.175 | 1.41
C/C=C/C(=O)NCC(=O)c1cccc(OC)c1 [Example 123, (E)-N-(2-(3-methoxyphenyl)-2-oxoethyl)but-2-enamide] | 1.312 | 1.14
O=C(CNS(=O)(=O)c1cccc([N+](=O)[O-])c1)c1ccccc1 [Example 21, 3-nitro-N-(2-oxo-2-phenylethyl)benzenesulfonamide] | 1.099 | 0.99
